The source of these data is US20260137820A1, “TRIFUNCTIONAL COMPOUND AND USE THEREOF” (PEKING UNIVERSITY, priority 2022, published 2026).

Molecules are shown by their SMILES.

In assay [1] the target is T1, Human FAP Protein (Homo sapiens, UniProt Q12884).
T1 construct: His; purchased Novoprotein (China)
T1 sequence (Q12884 1-760): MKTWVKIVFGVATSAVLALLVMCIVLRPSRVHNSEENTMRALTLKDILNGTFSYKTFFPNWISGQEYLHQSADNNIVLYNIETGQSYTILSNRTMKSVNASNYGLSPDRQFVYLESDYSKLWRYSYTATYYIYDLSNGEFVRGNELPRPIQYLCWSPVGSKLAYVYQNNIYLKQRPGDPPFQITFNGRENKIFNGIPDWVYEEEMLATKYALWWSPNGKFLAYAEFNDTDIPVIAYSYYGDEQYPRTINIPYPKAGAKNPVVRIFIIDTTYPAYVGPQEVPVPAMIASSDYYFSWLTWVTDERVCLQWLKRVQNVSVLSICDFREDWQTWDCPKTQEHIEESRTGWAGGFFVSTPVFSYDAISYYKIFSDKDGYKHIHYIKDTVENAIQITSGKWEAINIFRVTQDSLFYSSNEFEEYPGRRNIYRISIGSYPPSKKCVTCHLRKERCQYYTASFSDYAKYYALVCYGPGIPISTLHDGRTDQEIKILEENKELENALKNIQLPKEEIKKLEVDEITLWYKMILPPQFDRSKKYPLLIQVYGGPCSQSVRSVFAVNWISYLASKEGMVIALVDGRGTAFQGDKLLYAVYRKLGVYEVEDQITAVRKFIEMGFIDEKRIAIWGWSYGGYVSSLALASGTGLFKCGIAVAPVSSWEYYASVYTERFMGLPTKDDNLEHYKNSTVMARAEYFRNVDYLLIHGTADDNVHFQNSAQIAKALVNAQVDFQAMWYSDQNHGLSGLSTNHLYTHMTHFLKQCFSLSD
Nature of the assay: Surface plasmon resonance, multi-cycle mode. The following applies: SPR multi-cycle, 1:1 binding model. The format is binding. As to the method: According to US Pharmacopeia USP43 IMMUNOLOGICAL TEST METHODS-SURFACE PLASMON RESONANCE<1105> and Chinese Pharmacopoeia 2020, Volume IV, Surface plasmon resonance method, Label-free Immunochemistry (IV), 3429 Immunochemistry, General Rule, a surface plasmon resonance experiment was carried out.
A surface plasma chromatograph from Cytiva was used for measurement. Before protein injection, 400 mM condensing agent 1-ethyl-(3-dimethylaminopropyl)carbodiimide hydrochloride and 100 mM N-hydroxysuccinimide were mixed, and a CM5 sensor chip was activated with this mixture for 420 seconds at a flow rate of 10 μL/min. 50 μg/mL protein was then injected into an Fc2 sample channel at a flow rate of 10 μL/min to achieve a protein immobilization level of about 8000-15000 RU. In the control group, no protein was injected. Subsequently, the unreacted chip was blocked with 1M ethanolamine hydrochloride-NaOH at a flow rate of 10 μL/min for 420 seconds.
Different gradient solutions were injected into channels Fc1-Fc2 at a flow rate of 30 μL/min, followed by a 60-second binding phase and a 90-second dissociation phase, and data were collected.

The subject of assay [2] is LNCaP cells. Description: Cell affinity determination, similar method. The format is cell-based. The method, then: (§1) HT-1080-FAP cells were inoculated into a 24-well plate 24 hours in advance, with the density being about 30% (calculated and estimated), 10^5 cells (countable) per well. 0.5 mL of a complete medium was added. The medium was changed to a serum-free medium. 12 groups of FAPI-CB-01 solutions with a concentration gradient of 0-5000 nM were set up, with internal replicates n=4 for each group. […] 0.75 nM ^68Ga-FAPI-04 was added to each well, followed by incubation at 37° C. for 1 hour. After washing twice with cold PBS and lysis, the radioactivity count was measured.
(§2) Using a similar method, the corresponding targeting PSMA-CB-05, FOLR1-CB-06, SSTR2-CB-02, Nectin4-CB-02, and CXCR4-CB-03 were determined for affinity in LNCaP cells, KB cells, AR42J cells, SW-780 cells, or Daudi cells, respectively. All of these compounds maintained good affinity.

Assay [3] concerns AR42J cells. Nature of the assay: Cell affinity determination, similar method. The format is cell-based. The method, then: as §1, §2

In the case of `N#C[C@@H]1CC(F)(F)CN1C(=O)CNC(=O)c1ccnc2ccc(OCCCN3CCN(C(=O)CN4CCN(CC(=O)O)CCN(CC(=O)O)CCN(CC(=O)O)CC4)CC3)cc12` [FAPI-04, reference compound], in assay [1], the “Rmax (maximum theoretical analyte binding capacity)” value worked out at 21.7 RU, the ka came to 845000 M⁻¹ s⁻¹ and the kd was 0.000311 s⁻¹.
In the case of `O=C(O)CC[C@H](NC(=O)N[C@@H](CCCCNC(=O)[C@H](Cc1ccc2ccccc2c1)NC(=O)[C@H]1CC[C@H](CNC(=O)[C@H](CCCCNC(=O)CCc2cccc(S(=O)(=O)F)c2)NC(=O)CN2CCN(CC(=O)O)CCN(CC(=O)O)CCN(CC(=O)O)CC2)CC1)C(=O)O)C(=O)O` [PSMA-CB-05], in assay [2], the affinity result is listed as “good affinity”.
With `C[C@@H](O)[C@H](NC(=O)[C@@H]1CSSC[C@H](NC(=O)[C@@H](Cc2ccccc2)NC(=O)CN2CCN(CC(=O)O)CCN(CC(=O)O)CCN(CC(=O)O)CC2)C(=O)N[C@@H](Cc2ccc(OS(=O)(=O)F)cc2)C(=O)N[C@H](Cc2c[nH]c3ccccc23)C(=O)N[C@@H](CCCCN)C(=O)N[C@@H]([C@@H](C)O)C(=O)N1)C(=O)O` [SSTR2-CB-02], the affinity result in assay [3] was “good affinity”.
